Where only a bound is given, the exact number is not on record here.

The target in one experiment is T1, SETD2(1434-1711) (Homo sapiens, UniProt Q9BYW2).
T1 construct: SETD2 (1434-1711) Assay; catalogue N/A
T1 sequence (Q9BYW2 1434-1711): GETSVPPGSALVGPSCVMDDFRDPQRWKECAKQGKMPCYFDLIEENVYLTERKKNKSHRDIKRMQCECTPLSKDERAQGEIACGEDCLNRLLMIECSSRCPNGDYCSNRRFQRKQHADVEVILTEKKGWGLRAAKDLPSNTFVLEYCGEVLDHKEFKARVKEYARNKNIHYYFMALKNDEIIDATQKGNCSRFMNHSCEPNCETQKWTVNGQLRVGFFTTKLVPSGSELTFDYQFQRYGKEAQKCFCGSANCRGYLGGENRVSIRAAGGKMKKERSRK
Nature of the experiment: SETD2 (1434-1711) assay. Format: biochemical. As to conditions: read-out: SETD2 (1434-1711).
Consider `Cc1ccc(F)c2cc(C(=O)Nc3cccc(-c4nnco4)c3)[nH]c12` [Cpd. No. 60, N-(3-(1,3,4-oxadiazol-2-yl)phenyl)-4-fluoro-7-methyl-1H-indole-2-carboxamide], for which the IC50 was 0.03 µM.
Consider `Cc1c(C#N)ccnc1C(NC(=O)c1cc2c(F)ccc(C)c2[nH]1)C1CC1` (stereo not shown) [compound 432], for which the IC50 was determined as 0.7 µM.
As to `CC(=NC#N)N1CCN(C2CCCC(NC(=O)c3cc4c(F)ccc(C)c4[nH]3)C2)CC1` (stereo not shown) [compound 1148], the IC50 stood at 0.9 µM.
The same measure, in the same setting: the value for `Cc1ccc(F)c2cc(C(=O)Nc3cccc(-c4n[nH]c(=O)[nH]4)c3)[nH]c12` [compound 532] was 0.2 µM; that for `Cc1ccc(F)c2cc(C(=O)Nc3cccc(C4CCN(C)C(=O)C4)c3)[nH]c12` (stereo not shown) [compound 160] was 0.09 µM; that for `Cc1cccnc1C(CCC(=O)N1CCOCC1)NC(=O)c1cc2c(F)ccc(C)c2[nH]1` (stereo not shown) [compound 334] was 0.7 µM.
For `Cc1cccc2cc(C(=O)Nc3ccc4ccc(C(=O)N5CCN(C)CC5)cc4c3)[nH]c12` [compound 448], the IC50 stood at 0.9 µM.
Turning to `Cc1ccc(F)c2cc(C(=O)Nc3cc(Cl)cc([C@H]4CC[C@H](N(C)C)CC4)c3)[nH]c12` [compound 339], the IC50 came out at 0.04 µM.
Same read-out and setting: the value for `Cc1ccc(F)c2cc(C(=O)Nc3ccc4nc(NC5CCNCC5)ncc4c3)[nH]c12` [compound 416] was 0.04 µM.
For the compound `Cc1ccc(F)c2cc(C(=O)Nc3cccc(N4CCN(C)C(C(F)(F)F)C4)c3)[nH]c12` (stereo not shown) [compound 229], the IC50 came out at 0.1 µM.
In the case of `Cc1ccc(F)c2cc(C(=O)Nc3cc(Cl)cc(N4CCC(CCCN)CC4)c3)[nH]c12` [compound 246], the IC50 came to 0.009 µM.
For the compound `CC(=O)N1CCN(C2COCC(NC(=O)c3cc4c(F)ccc(C)c4[nH]3)C2)CC1` (stereo not shown) [compound 985], the IC50 worked out at 6.6 µM.
As for `CC(=O)N1CCC2(CC1)CN(c1cc(F)cc(NC(=O)c3cc4c(F)ccc(C)c4[nH]3)c1)C2` [compound 19], the IC50 is 0.01 µM.
`Cc1ccc(F)c2cc(C(=O)Nc3cccc(N4C5COCC4C5)c3)[nH]c12` [compound 422]: the IC50 stood at 1.5 µM.
As to `CC(=O)N1C2CC1CN(c1cccc(NC(=O)c3cc4c(F)ccc(C)c4[nH]3)c1)C2` [compound 257], the IC50 stood at 0.2 µM.
Still for that read-out and setting: the value for `Cc1cccc2cc(C(=O)N3CCCC34CCc3ccccc34)[nH]c12` (stereo not shown) [compound 619] was greater than 200 µM.
As to `Cc1ccc(F)c2cc(C(=O)Nc3cnc(C4CCN(C)CC4)[nH]3)[nH]c12` [compound 562], the IC50 was greater than 10 µM.
As for `Cc1ccc(F)c2cc(C(=O)Nc3cccc(C4CCCN4)c3)[nH]c12` (stereo not shown) [compound 425], the IC50 came to 0.3 µM.
In the case of `Cc1ccc(F)c2cc(C(=O)Nc3cccc(-c4ccc(Cn5ccnc5)cc4)c3)[nH]c12` [compound 228], the IC50 amounted to 0.08 µM.
On to `Cc1ccc(F)c2cc(C(=O)Nc3cccc(N4CCC(N5CCOCC5)C4)c3)[nH]c12` (stereo not shown) [compound 74], for which the IC50 is 0.03 µM.
Still for that read-out and setting: then `Cc1ccc(F)c2cc(C(=O)Nc3cccc(N4CCN(C(C)C)C(C)C4)c3)[nH]c12` (stereo not shown) [compound 205], with 0.03 µM; and `Cc1cc2ccccc2nc1C(NC(=O)c1cc2cccc(C)c2[nH]1)C1CC1` (stereo not shown) [compound 472], with 0.9 µM; and `Cc1cccc2cc(C(=O)Nc3cccc(N4CCN(S(=O)(=O)CCN)CC4)n3)[nH]c12` [compound 443], with 0.6 µM.
On the same count and under the same terms, the value for `Cc1ccc(F)c2cc(C(=O)NCCc3ccccc3N3CCN(C)CC3)[nH]c12` [compound 540] was 1.7 µM; that for `Cc1cccc2cc(C(=O)NCc3ccccc3N3CCOCC3)[nH]c12` [compound 575] was greater than 18 µM.
For `Cc1ccc(F)c2cc(C(=O)Nc3cccc(N4CCN(C5CC5)CC4)c3)[nH]c12` [compound 236], the IC50 amounted to 0.2 µM.

The subject of another experiment is H3K36me3 in A549 cells. Nature of the experiment: In-Cell Western (ICW) assay of SETD2 inhibitors (A549 assay). The format is cell-based, human. The settings on record: A549 cells; read-out: SETD2 A549. The essentials:
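H3K36me3 In-Cell Western: cells exposed to compound for 3 days at 4,000 cells/well, 37° C. DRAQ5 (1:1000) marked cell number, with 700/800-channel Licor read-out.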
For `CC(=NC#N)N1CCN(C2CCCC(NC(=O)c3cc4c(F)ccc(C)c4[nH]3)C2)CC1` (stereo not shown) [compound 1148], the IC50 is greater than 2 µM.
Regarding `Cc1ccc(F)c2cc(C(=O)Nc3cccc(-c4n[nH]c(=O)[nH]4)c3)[nH]c12` [compound 532], the IC50 is greater than 25 µM.
Take `Cc1cccc2cc(C(=O)Nc3ccc4ccc(C(=O)N5CCN(C)CC5)cc4c3)[nH]c12` [compound 448]: the IC50 was 5.5 µM.
For the compound `Cc1ccc(F)c2cc(C(=O)Nc3cccc(N4CCN(C)C(C(F)(F)F)C4)c3)[nH]c12` (stereo not shown) [compound 229], the IC50 turned out to be 0.5 µM.
For the compound `Cc1ccc(F)c2cc(C(=O)Nc3cc(Cl)cc(N4CCC(CCCN)CC4)c3)[nH]c12` [compound 246], the IC50 amounted to 0.6 µM.
`CC(=O)N1CCN(C2COCC(NC(=O)c3cc4c(F)ccc(C)c4[nH]3)C2)CC1` (stereo not shown) [compound 985]: the IC50 is greater than 2 µM.
Still for that read-out and setting: the value for `CC(=O)N1CCC2(CC1)CN(c1cc(F)cc(NC(=O)c3cc4c(F)ccc(C)c4[nH]3)c1)C2` [compound 19] was 0.06 µM; that for `Cc1ccc(F)c2cc(C(=O)Nc3cccc(N4C5COCC4C5)c3)[nH]c12` [compound 422] was 3.7 µM.
For the compound `Cc1ccc(F)c2cc(C(=O)Nc3cccc(C4CCCN4)c3)[nH]c12` (stereo not shown) [compound 425], the IC50 was 3.9 µM.
Still for that read-out and setting: the value for `Cc1ccc(F)c2cc(C(=O)Nc3cccc(-c4ccc(Cn5ccnc5)cc4)c3)[nH]c12` [compound 228] was 0.5 µM; that for `Cc1ccc(F)c2cc(C(=O)Nc3cccc(N4CCC(N5CCOCC5)C4)c3)[nH]c12` (stereo not shown) [compound 74] was 0.2 µM.
In the case of `Cc1ccc(F)c2cc(C(=O)Nc3cccc(N4CCN(C(C)C)C(C)C4)c3)[nH]c12` (stereo not shown) [compound 205], the IC50 stood at 0.4 µM.
On to `Cc1cc2ccccc2nc1C(NC(=O)c1cc2cccc(C)c2[nH]1)C1CC1` (stereo not shown) [compound 472], for which the IC50 is 8.5 µM.
Regarding `Cc1ccc(F)c2cc(C(=O)Nc3cccc(N4CCN(C5CC5)CC4)c3)[nH]c12` [compound 236], the IC50 came to 0.6 µM.

The experiment is the same for the next values; noted with them: Homo sapiens; A549 cells; read-out: SETD2 A549.
Regarding `Cc1ccc(F)c2cc(C(=O)Nc3cccc(-c4nnco4)c3)[nH]c12` [Cpd. No. 60, N-(3-(1,3,4-oxadiazol-2-yl)phenyl)-4-fluoro-7-methyl-1H-indole-2-carboxamide], the IC50 is 0.1 µM.
`Cc1c(C#N)ccnc1C(NC(=O)c1cc2c(F)ccc(C)c2[nH]1)C1CC1` (stereo not shown) [compound 432]: the IC50 turned out to be 4.5 µM.
Regarding `Cc1ccc(F)c2cc(C(=O)Nc3cccc(C4CCN(C)C(=O)C4)c3)[nH]c12` (stereo not shown) [compound 160], the IC50 was determined as 0.3 µM.
With `Cc1cccnc1C(CCC(=O)N1CCOCC1)NC(=O)c1cc2c(F)ccc(C)c2[nH]1` (stereo not shown) [compound 334], the IC50 came out at 1.6 µM.
Turning to `Cc1ccc(F)c2cc(C(=O)Nc3cc(Cl)cc([C@H]4CC[C@H](N(C)C)CC4)c3)[nH]c12` [compound 339], the IC50 is 1.7 µM.
Take `Cc1ccc(F)c2cc(C(=O)Nc3ccc4nc(NC5CCNCC5)ncc4c3)[nH]c12` [compound 416]: the IC50 worked out at 3.3 µM.
For `CC(=O)N1C2CC1CN(c1cccc(NC(=O)c3cc4c(F)ccc(C)c4[nH]3)c1)C2` [compound 257], the IC50 was found to be 0.6 µM.
The same measure, in the same setting: the value for `Cc1cccc2cc(C(=O)N3CCCC34CCc3ccccc34)[nH]c12` (stereo not shown) [compound 619] was greater than 25 µM; that for `Cc1ccc(F)c2cc(C(=O)Nc3cnc(C4CCN(C)CC4)[nH]3)[nH]c12` [compound 562] was greater than 25 µM.
As to `Cc1cccc2cc(C(=O)Nc3cccc(N4CCN(S(=O)(=O)CCN)CC4)n3)[nH]c12` [compound 443], the IC50 is 5.1 µM.
With `Cc1ccc(F)c2cc(C(=O)NCCc3ccccc3N3CCN(C)CC3)[nH]c12` [compound 540], the IC50 was greater than 25 µM.
For `Cc1cccc2cc(C(=O)NCc3ccccc3N3CCOCC3)[nH]c12` [compound 575], the IC50 was greater than 25 µM.

Values taken from US12116358B2, “Substituted indoles and methods of use thereof” (EPIZYME, INC., priority 2018, dated 2024).
